Experimental findings from PubChem BioAssay (NCI) are described below.

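Step 1: Grow cells in 96-well plates. Step 2: Expose to compound for 48 hours at 5 concentrations. Step 3: Interpolate endpoints linearly; if unreached, use highest concentration. GI50 is the concentration that inhibits growth by half. Definition used: TGI = concentration required for complete inhibition of growth.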

Among the test systems are HT29 colon; COLO 205 colon; HOP-92 NSCLC; SK-MEL-28 melanoma; SK-MEL-2 melanoma; CAKI-1 renal; SF-539 CNS; TK-10 renal; PC-3 prostate.
Experiment in all cases: NCI tumour cell line growth inhibition, 48 h

`CC(=O)Nc1ccc(/C=C/C(=O)c2sc(-c3cccnc3)nc2C)cc1`: the TGI in the experiment on HT29 colon, in the experiment with COLO 205 colon, in the experiment with HOP-92 NSCLC, in the experiment with SK-MEL-28 melanoma, in the experiment with SK-MEL-2 melanoma and with CAKI-1 renal was over 100 µM in each case. Moreover, the TGI in the experiment on SF-539 CNS and in the experiment with TK-10 renal was over 100 µM each time.

Consider `O=C(C(=O)c1cc2ccccc2[nH]1)c1cc2ccccc2[nH]1`, for which the TGI with HT29 colon, in the experiment with COLO 205 colon, with HOP-92 NSCLC, in the experiment on SK-MEL-28 melanoma, in the experiment on SK-MEL-2 melanoma and with CAKI-1 renal was over 347 µM each time. For the same compound, the TGI with SF-539 CNS and with TK-10 renal was over 347 µM in each case.

As for `CC(C)C[C@H](NC(=O)CNC(=O)c1cc(Cl)ccc1Cl)B(O)O`, the GI50 in the experiment with HT29 colon was under 0.0155 µM; with COLO 205 colon, 0.0432 µM; in the experiment with PC-3 prostate it was 0.0486 µM; in the experiment with HOP-92 NSCLC it was 0.0231 µM; with SK-MEL-28 melanoma, under 0.0175 µM; in the experiment with SK-MEL-2 melanoma, under 0.0145 µM. For the same compound, the figures for the GI50 with CAKI-1 renal, in the experiment with SF-539 CNS and in the experiment on TK-10 renal were under 0.0165 µM, under 0.0125 µM and under 0.0138 µM, respectively. Further, the TGI is 0.0616 µM in the experiment on HT29 colon; over 38.5 µM in the experiment on COLO 205 colon; 0.841 µM in the experiment with PC-3 prostate; 0.165 µM in the experiment with HOP-92 NSCLC; 0.174 µM in the experiment with SK-MEL-28 melanoma; 0.0364 µM in the experiment on SK-MEL-2 melanoma. The TGI is 0.0676 µM with CAKI-1 renal, 0.0258 µM in the experiment on SF-539 CNS and 0.0517 µM with TK-10 renal.

For the compound `CCC[C@H]1O[C@@H]2CC(=O)O[C@@H]2C2=C1C(=O)C=CC2=O`, the TGI was determined as 43.3 µM in the experiment on HT29 colon; 9.03 µM in the experiment on COLO 205 colon; 8.31 µM in the experiment with HOP-92 NSCLC; 31.5 µM in the experiment on SK-MEL-28 melanoma; 38.6 µM in the experiment on SK-MEL-2 melanoma; 34.1 µM in the experiment with CAKI-1 renal. The TGI in the experiment with SF-539 CNS was 33.6 µM; with TK-10 renal it was over 57.3 µM.

Take `N#C/C(=C\c1cc(O)cc(O)c1)C(N)=O`: the TGI in the experiment on HT29 colon, with COLO 205 colon, in the experiment with HOP-92 NSCLC, with SK-MEL-28 melanoma, in the experiment on SK-MEL-2 melanoma and with CAKI-1 renal was over 100 µM each time. The TGI with SF-539 CNS and with TK-10 renal was over 100 µM each time.

As to `C=C(C)[C@H]1CC[C@@]2(C)C(C1)[C@H](C)CC[C@@H]2O` (stereo partly drawn), the TGI in the experiment with HT29 colon, in the experiment with COLO 205 colon, in the experiment with HOP-92 NSCLC, in the experiment on SK-MEL-28 melanoma, in the experiment on SK-MEL-2 melanoma and in the experiment on CAKI-1 renal was over 100 µM throughout. For the same compound, the TGI with SF-539 CNS and with TK-10 renal was over 100 µM each time.

Regarding `Cc1nc2sccn2c1C(=O)NN`, the TGI in the experiment on HT29 colon, with COLO 205 colon, in the experiment with HOP-92 NSCLC, with SK-MEL-28 melanoma, in the experiment on SK-MEL-2 melanoma and with CAKI-1 renal was over 100 µM throughout. Further, the TGI in the experiment on SF-539 CNS and with TK-10 renal was over 100 µM throughout.

`O=C1[C@H]2ON(c3ccccc3)C(c3ccc([N+](=O)[O-])cc3)[C@H]2C(=O)N1c1ccc(Cc2ccc(N3C(=O)[C@@H]4ON(c5ccccc5)C(c5ccc([N+](=O)[O-])cc5)[C@@H]4C3=O)cc2)cc1` (stereo partly drawn): the TGI is over 100 µM in the experiment on HT29 colon; over 100 µM with COLO 205 colon; 99 µM with HOP-92 NSCLC; over 100 µM in the experiment with SK-MEL-28 melanoma; over 100 µM in the experiment on SK-MEL-2 melanoma; over 100 µM in the experiment on CAKI-1 renal. For the same compound, the TGI in the experiment with SF-539 CNS and in the experiment with TK-10 renal was over 100 µM throughout.

Regarding `Cc1cnc2ccc(C)c([N+](=O)[O-])c2c1NCCCN(C)C`, the TGI in the experiment with HT29 colon, with COLO 205 colon, with SK-MEL-28 melanoma, in the experiment with SK-MEL-2 melanoma, in the experiment with CAKI-1 renal and in the experiment with SF-539 CNS was over 100 µM each time. Also, in the experiment on TK-10 renal, the TGI was over 100 µM.

On to `CCOC(=O)c1cc(C(=O)c2ccc(OC)cc2)n2ccc(/C=C/c3cc[n+](CC(=O)c4ccc(OC)cc4)cc3)cc12`, for which the GI50 in the experiment with HT29 colon is 1.81 µM; in the experiment with PC-3 prostate, 2.03 µM; in the experiment on HOP-92 NSCLC, 1.23 µM; in the experiment on SK-MEL-28 melanoma it was 1.87 µM; in the experiment with TK-10 renal, 2.01 µM. For the same compound, the TGI is 4.55 µM in the experiment with HT29 colon; 5.96 µM in the experiment on PC-3 prostate; 3.15 µM with HOP-92 NSCLC; 3.69 µM with SK-MEL-28 melanoma; 5.76 µM with TK-10 renal.

`C=CCNC(=O)NCCCCC(NC(C)=O)C(=O)NCc1ccccc1` (stereo not drawn): the TGI with HT29 colon, in the experiment with COLO 205 colon, in the experiment on HOP-92 NSCLC, in the experiment on SK-MEL-28 melanoma, in the experiment on SK-MEL-2 melanoma and in the experiment with CAKI-1 renal was over 100 µM throughout. Also, the TGI in the experiment on SF-539 CNS and with TK-10 renal was over 100 µM throughout.

With `NNC(=O)C(=O)N/N=C(\CCCC(=O)Nc1ccc(Cl)cc1)CC(=O)c1ccc(F)cc1`, the TGI in the experiment with HT29 colon, with COLO 205 colon, in the experiment on HOP-92 NSCLC, in the experiment on SK-MEL-28 melanoma, with SK-MEL-2 melanoma and in the experiment on TK-10 renal was over 100 µM throughout.

On to `COc1ccc(C(c2ccccc2)(c2ccc(OC)cc2)N2C(=O)NC3C(CCCCC(=O)NCCCCCCOP(OCCC#N)N(C(C)C)C(C)C)SCC32)cc1` (stereo not drawn), for which the TGI is 31.7 µM with HT29 colon; 40.7 µM with COLO 205 colon; 35 µM in the experiment on HOP-92 NSCLC; 29 µM in the experiment on SK-MEL-28 melanoma; 24.9 µM with SK-MEL-2 melanoma; 28.1 µM with SF-539 CNS. Also, the TGI in the experiment on TK-10 renal was 35.7 µM.

`O=C(CSc1nc2c(n1Nc1ccccc1)-c1ccccc1SC2)Nc1nc(-c2ccc(Cl)cc2)cs1`: the GI50 in the experiment on HT29 colon is over 100 µM; with COLO 205 colon it was 4.1 µM; with PC-3 prostate it was over 100 µM; with HOP-92 NSCLC, 11.6 µM; with SK-MEL-28 melanoma, over 100 µM; in the experiment on SK-MEL-2 melanoma it was 37.2 µM. The GI50 in the experiment on SF-539 CNS is 25.8 µM; in the experiment with TK-10 renal, 22.9 µM. The TGI in the experiment on HT29 colon was over 100 µM; in the experiment with COLO 205 colon, over 100 µM; with PC-3 prostate, over 100 µM; in the experiment on HOP-92 NSCLC, 71 µM; with SK-MEL-28 melanoma, over 100 µM; in the experiment on SK-MEL-2 melanoma, over 100 µM. For the same compound, the TGI with SF-539 CNS was over 100 µM; in the experiment on TK-10 renal, 58.9 µM.
